In brackets after ≈: the same amount, converted by molar mass.
What was measured:
VUN 10,010 = experiment: Degradation of high molecular weight PAHs by axenic cultures; assay type: cell-based, Stenotrophomonas maltophilia
Procedure: (§1) PAH concentrations in the DCM extracts were measured on a Varian Star 3400 gas chromatograph, equipped with a flame ionization detector, using a BPX-5 capillary column (25 m×0.22 mm). The nitrogen carrier flow rate was 0.8 ml min^−1 with a pressure of 20 psi under split conditions (95:1). The oven temperature was programmed at 200° C. for 1 min, followed by a linear increase of 10° C. min^−1 to 320° C.; this temperature was held for 15 min. Injector and detector temperatures were maintained at 300° C. The peak areas of both internal standard and PAH were used to calculate peak area ratios. Ratios obtained for each sample, as well as controls, were compared to those of PAH standards.
(§2) PAH degradation experiments using axenic bacterial and fungal cultures, and fungal-bacterial co-culture, were performed in 30 ml reaction vials containing 10 ml of medium. Before inoculation, 0.1 ml of PAH stock solution (either single PAH or mixed PAH stock as described above) was introduced into the medium. This medium was then inoculated with microorganisms to produce either axenic cultures or co-cultures. Axenic cultures were inoculated with either bacteria (1 ml) to provide an initial cell population of approximately 10^4 cells ml^−1, or with mycelial pellets (0.25 g wet weight) in 10 ml of BSM. For the co-culture experiments, BSM (10 ml) contained bacteria (10^4 cells ml^−1) and 0.25 g wet weight of mycelial pellets. Experiments to investigate of co-metabolic PAH degradation by P. janthinellum were conducted with the PAH in BSM supplemented with glucose (1% final concentration) or MYPD medium. […] Medium (10 ml) was inoculated with fungal or bacterial culture using the same inoculum size as described above. All cultures were aseptically flushed with filtered (0.22 μm) air (0.2 litres min^−1) for 5 seconds on the day of inoculation and every 7 days thereafter. Abiotic controls were sterile medium containing only PAH(s). Killed-cell controls were the PAH-containing medium inoculated with a killed microbial population. The experimental cultures were conducted in triplicate, and all controls were run in duplicate. All cultures were incubated in the dark at 30° C./175 rpm. At designated time intervals the entire culture (10 ml) was sacrificed for the PAH-extraction procedure and biomass determinations.

[1] = tested on: S. maltophilia VUN 10,010; experiment: Degradation of single high molecular weight PAHs by high initial populations of VUN 10,010 with surfactant; assay type: cell-based, Stenotrophomonas maltophilia
Procedure: […] Incubations contained a single PAH in BSM at 30° C. The PAH remaining was calculated as a percentage relative to the PAH recovered from the […]. Averages for the test cultures are from triplicate experiments.
Tergitol NP-10 (5 and 10 g l^−1) was added to BSM broths each containing a single high molecular weight PAH.

[2] = tested on: S. maltophilia VUN 10,010; experiment: Degradation of a PAH mixture by VUN 10,010 with surfactant, low initial cell population; assay type: cell-based, Stenotrophomonas maltophilia; conditions: for Maximum Specific Degradation Rate: — = not appreciable
Procedure: The incubations were conducted in BSM at 30° C., using low initial cell populations. The PAH remaining was calculated as a percentage relative to the PAH recovered from the uninoculated control. Averages for the test cultures are from triplicate experiments.
A low initial cell population of around 9×10^3 cells ml^−1 was used.

[3] = tested on: P. janthinellum VUO 10,201; experiment: Degradation of high molecular weight PAHs by axenic cultures; assay type: cell-based, Penicillium janthinellum
Procedure: as §1, §2

[4] = tested on: Bacterial consortium VUN 10,009; experiment: as above; assay type: cell-based
Procedure: as §1, §2

physchem = experiment: physchem
Procedure: PAHs (approximately 1 g l^−1) were added to a 10 ml solution of BSM plus surfactant in a 30 ml glass reaction vial, which was sealed with an aluminium cap fitted with a septum. Surfactant concentrations corresponded to levels above, below, and at the CMC, and replicates were set up to allow sampling in duplicate at different time intervals up to 72 h. Incubation was performed at 30° C. and 175 rpm. The entire vial contents was collected by syringe and expressed through a preconditioned membrane filter (0.22 μm, Sartorius AG, Germany) to remove solid-phase crystalline PAH while allowing solubilized PAH in the aqueous phase and micellar pseudophase to pass into sterile vials. The filter was preconditioned by purging the filter with a few mls of sample solution to allow sorption saturation of the internal surfaces of the syringe, filter and needle. The filtrates were extracted with dichloromethane (DCM), and the concentration of solubilized PAH was determined by GC-FID as described below.
The effectiveness of a particular surfactant in solubilizing a given PAH can be assessed by determining the molar solubilization ratio (MSR) and micelle/water partition coefficient (Km). In our study, the concentrations of added PAHs were well in excess of aqueous saturation concentrations; therefore the MSR value of each compound can be obtained from the slope of the curve generated from a plot of PAH concentration versus surfactant concentration for surfactant concentrations above CMC (Edwards et al, 1991).
Km values can be determined from the measured MSR values according to the following equation (Edwards et al, 1991): [formula]
^SPAH, CMC is the apparent solubility of the PAH (mol l^−1) at surfactant CMC. VW is the molar volume of water at 30° C. ie. 0.018015 l mol^−1(Rogers and Mayhew, 1981).

[5] = BSM + PYR (pyrene 250 mg l^−1), 28 day samples
[6] = Tergitol NP-10 5 g l^−1, Single PAH
[7] = Tergitol NP-10 10 g l^−1, Single PAH
[8] = Tergitol NP-10 5 g l^−1, Mixed PAH
[9] = 30 °C, aqueous with cosolvent or surfactant or cyclodextrin, thermodynamic from solid

| Structure (SMILES) | PAH removal (%) (VUN 10,010; [5]) | PAH removal (%) (VUN 10,010; BSM, 56 day samples) | Maximum Specific Degradation Rate ([1]; Brij 35 5 g l^−1, Single PAH) | percentage change in maximum specific degradation rate due to surfactant addition ([1]; Brij 35 5 g l^−1, Single PAH) | Maximum Specific Degradation Rate ([1]; Brij 35 10 g l^−1, Single PAH) | percentage change in maximum specific degradation rate due to surfactant addition ([1]; Brij 35 10 g l^−1, Single PAH) | Maximum Specific Degradation Rate ([1]; No Surfactant, Single PAH) | Maximum Specific Degradation Rate [1, 6] | percentage change in maximum specific degradation rate due to surfactant addition [1, 6] | Maximum Specific Degradation Rate [1, 7] | percentage change in maximum specific degradation rate due to surfactant addition [1, 7] | Maximum Specific Degradation Rate ([2]; No Surfactant, Mixed PAH) | percentage change in maximum specific degradation rate due to surfactant addition [2, 8] | Maximum Specific Degradation Rate [2, 8] | PAH removal (%) ([3]; BSM, 56 day samples) | PAH removal (%) ([3]; BSM^g, 28 day samples) | PAH removal (%) ([3]; MYPD, 28 day samples) | PAH removal (%) [4, 5] | PAH removal (%) ([4]; BSM, 56 day samples) | solubility (physchem; 30° C.) [µM] | further results |
| --- | --- | --- | --- | --- | --- | --- | --- | --- | --- | --- | --- | --- | --- | --- | --- | --- | --- | --- | --- | --- | --- |
| c1ccc2cc3c(ccc4ccccc43)cc2c1 [Benz[a]anthracene, benz[a]anthracene] | 19.84 + 0.3% | 8.2 ± 1.6 | 7.18 mg PAH degraded mg^−1 protein day^−1 | +63% | 7.37 mg PAH degraded mg^−1 protein day^−1 | +67% | 4.41 mg PAH degraded mg^−1 protein day^−1 | 9.66 mg PAH degraded mg^−1 protein day^−1 | +119% | 11.14 mg PAH degraded mg^−1 protein day^−1 | +153% | 1.71 mg PAH degraded mg^−1 protein day^−1 | +90% | 3.25 mg PAH degraded mg^−1 protein day^−1 | 9.1 ± 1.4 | 18.1 ± 2.3 | 23.1 ± 1.2 | 9.6 + 0.7% | 7.8 ± 0.3 |  |  |
| c1ccc2c(c1)cc1ccc3cccc4ccc2c1c34 [Benzo[a]pyrene, benzo[a]pyrene] | 32.2 + 1.2% | 12.3 ± 1.0 | 5.84 mg PAH degraded mg^−1 protein day^−1 | −6% | 5.47 mg PAH degraded mg^−1 protein day^−1 | −12% | 6.21 mg PAH degraded mg^−1 protein day^−1 | 6.73 mg PAH degraded mg^−1 protein day^−1 | +8% | 7.90 mg PAH degraded mg^−1 protein day^−1 | 27% | 1.43 mg PAH degraded mg^−1 protein day^−1 | +201% | 4.30 mg PAH degraded mg^−1 protein day^−1 | 16.9 ± 0.2 | 56.5 ± 2.4 | 72.2 ± 3.2 | 23.3 + 0.5% | 6.7 ± 0.9 | ~0.0159 (≈ 0.00401 µg/mL) | solubility (physchem; [9]): 160 to 180 µM (≈ 40.4 to 45.4 µg/mL) |
| c1ccc2c(c1)ccc1c3ccccc3ccc21 [Chrysene, chrysene] | 28.3 + 1.2% | 9.1 ± 1.2 | 7.35 mg PAH degraded mg^−1 protein day^−1 | +64% | 7.93 mg PAH degraded mg^−1 protein day^−1 | +77% | 4.49 mg PAH degraded mg^−1 protein day^−1 | 6.44 mg PAH degraded mg^−1 protein day^−1 | +43% | 4.16 mg PAH degraded mg^−1 protein day^−1 | −7% | 1.42 mg PAH degraded mg^−1 protein day^−1 | +94% | 2.76 mg PAH degraded mg^−1 protein day^−1 | 12.2 ± 0.4 | 25.6 ± 1.9 | 31.7 ± 3.7 | 12.1 + 0.4% | 8.2 ± 0.5 |  | PAH degradation rate in the presence of surfactants ([1]; Tergitol NP-10 5 and 10 g l^−1, high initial cell population): did not show improved PAH degradation rate |
| c1ccc2c(c1)ccc1cc3c(ccc4ccccc43)cc12 [Dibenz[a,h]anthracene, dibenz[a,h]anthracene] | 26.7 + 0.7% | 7.8 ± 0.6 | 6.26 mg PAH degraded mg^−1 protein day^−1 | +50% | 7.20 mg PAH degraded mg^−1 protein day^−1 | +73% | 4.17 mg PAH degraded mg^−1 protein day^−1 | 7.32 mg PAH degraded mg^−1 protein day^−1 | +76% | 8.74 mg PAH degraded mg^−1 protein day^−1 | 110% | 1.20 mg PAH degraded mg^−1 protein day^−1 | +140% | 2.89 mg PAH degraded mg^−1 protein day^−1 | 12.9 ± 0.3 | 24.4 ± 2.7 | 36.7 ± 1.7 | 13.8 + 0.9% | 5.9 ± 0.5 |  | concentration in the aqueous phase (physchem; at surfactant CMC, gas chromatograph): below the detection limit |
| c1ccc2c(c1)-c1cccc3cccc-2c13 [Fluoranthene, fluoranthene] |  |  | 3.71 mg PAH degraded mg^−1 protein day^−1 | +28% | 12.11 mg PAH degraded mg^−1 protein day^−1 | +318% | 2.90 mg PAH degraded mg^−1 protein day^−1 | 4.54 mg PAH degraded mg^−1 protein day^−1 | +57% | 4.59 mg PAH degraded mg^−1 protein day^−1 | +58% | 1.02 mg PAH degraded mg^−1 protein day^−1 | +9% | 1.11 mg PAH degraded mg^−1 protein day^−1 |  |  |  |  |  | ~1.37 (≈ 0.277 µg/mL) | solubility (physchem; [9]): 730 to 810 µM (≈ 148 to 164 µg/mL) |
| c1cc2ccc3cccc4ccc(c1)c2c34 [Pyrene, pyrene] |  | 100.0 ± 0.0 |  |  |  |  |  |  |  |  |  |  |  |  | 3.3 ± 0.3 | 80.3 ± 2.8 | 93.6 ± 2.8 |  | 100.0 ± 0.0 |  |  |

— patent US20040023362A1, “Degradation of polycyclic aromatic hydrocarbons by microorganisms” (priority 2000, published 2004)
